According to US20220372585A1, “Sensors for Aromatic Compounds and Methods of Making and Using Same” (Washington University, priority 2021, published 2022):
Entries after “also recorded” stand apart in the source; their conditions may differ. Read-outs that look alike come from different tables or passages of the source.

Tests used:
[1] = system: TynA-KP with FeaR-KA I109N; test: GFP fluorescence from PtynA-MG with TynA-KP and FeaR-KA I109N; type: cell-based, Klebsiella aerogenes; details: for induction of fluorescence: I109N variant, 0.5 mM, 24 h, FIG. 32
From the text: FIG. 32. […] Sensor system with PtynA-MG, TynA-KP and FeaR-KA was chosen as the wild type (WT) for further directed evolution. TynA-KP was employed to reduce the possible interference from DA during evolution processes. Values and error bars are the average and standard deviation of biological triplicate, respectively.
FIG. 33A-FIG. 33B. […] The expression of PtynA-MG was regulated by the TynA-KP with FeaR-KA I109N mutant. Points represent experimental data while lines represent the fitted curves. […] Values and error bars are the average and standard deviation of biological triplicate, respectively.

[2] = system: wild-type TynA with A81P FeaR; test: microbe, parasite or virus in culture; type: cell-based, E. coli MG1655; details: for EC50: Escherichia coli, read-out: KA (half maximal constant), wild-type TynA + A81P FeaR
Method: (§1) Flow cytometry was performed as previously described. […] Cytometry data was gated by forward and side scatter.

[3] = system: wild-type TynA and A81L FeaR; test: microbe, parasite or virus in culture; type: cell-based, E. coli MG1655; details: for EC50: Escherichia coli, read-out: KA (half maximal constant), wild-type TynA + A81L FeaR; for response: A81L FeaR
Method: as §1

TynA-FeaR system = test: microbe, parasite or virus in culture; details: for EC50 / fold induction at 1250 µM: Escherichia coli; for EC50: read-out: KA (half maximal constant); for fold induction at 1250 µM: read-out: fold induction of the reporter; for Fmax / Fmin / n (Hill coefficient): wild-type TynA and FeaR, pCX008, pHJY022
Method: To develop sensors for aromatic amines, the TynA-FeaR system was first characterized in EcN. A sensor plasmid was constructed, which consisted of constitutively expressed TynA and FeaR from E. coli MG1655, and a reporter plasmid, which consisted of GFP under the control of PtynA (see e.g., FIG. 3B). […] Next, the sensitivity and selectivity to different ligands was characterized.
For fluorescence-based quantification, single colonies were transferred to 5 mL LB medium (VWR, Radnor, Pa., USA) in 14 mL round bottom tubes and incubated overnight at 250 rpm and 37° C. Unless otherwise specified, experimental cultures were prepared by diluting overnight cultures 100× into 0.6 mL M9 minimal medium supplemented with 1 mM MgSO4, […]), and 2% w/v glycerol as well as the respective ligands (DA, PEA, Tyra, and Trypta) in 2 mL 96-deep well plates. Cultures were grown for 24 h at 37° C. and 250 rpm. After 5 h and 24 h of incubation, samples were obtained from the cultures for flow cytometry analysis.
Flow cytometry was performed as previously described. Culture samples were collected and diluted to a final OD600 of ˜0.005-0.01 in […] filtered phosphate-buffered saline supplemented with 2 mg/ml kanamycin in 96-well assay microplates (U-bottom, REF-353910 from BD Biosciences, San Jose, Calif., USA). The fluorescence of the samples was measured using a Millipore Guava EasyCyte High Throughput flow cytometer with a 488 nm excitation laser and 512/18 nm emission filter. Cytometry data was gated by forward and side scatter. FlowJo (TreeStar Inc.) was used to obtain the arithmetic mean of the fluorescence distribution. The averages of the arithmetic means were calculated from three biological replicates. The average fluorescence of the non-fluorescent wild-type cell was subtracted from each sample to obtain the final fluorescence (au) values (Equation 2). To obtain the relative fluorescence in FIG. 6A-FIG. 6C, fluorescence values for each variant were normalized to the fluorescence of the wild-type sensor using Equation 3.
The Hill equation (Equations 4 and 5) was used to fit lines to the fluorescence data. The model was fit to the experimentally collected data by minimizing the root mean square error (RMSE; Equation 6).

[4] = Sauerkraut, safe limit; cited from earlier work
G494S TynA and A81S FeaR = type: cell-based, E. coli MG1655; details: for Fmax / Fmin / n (Hill coefficient): G494S TynA + A81S FeaR, pCX008, pCX032
Method: as §1

[5] = system: G415H TynA with wild-type FeaR; type: cell-based, E. coli MG1655; details: for Fmax / Fmin / n (Hill coefficient): G415H TynA + wild-type FeaR, pCX008, pCX015; for response: G415H
Method: as §1

[6] = system: wild-type TynA with A81T FeaR; type: cell-based, E. coli MG1655; details: 24 h; for effect of the A81T FeaR mutation on the response of the sensor: wild-type TynA, 1 mM, FIG. 21
Method: as §1

[7] = system: G494S TynA with A81T FeaR; type: cell-based, E. coli MG1655; details: for Fmax / Fmin / n (Hill coefficient): G494S TynA + A81T FeaR, pCX008, pCX014; for response: G494S*
Method: as §1

[8] = system: G494S TynA with wild-type FeaR; type: cell-based, E. coli MG1655; details: for Fmax / Fmin / n (Hill coefficient): G494S TynA + wild-type FeaR, pCX008, pCX010
Method: as §1

[9] = wild-type TynA + A81P FeaR, pCX008, pCX025, FIG. 25A, 5 h
[10] = wild-type TynA + A81P FeaR, pCX008, pCX025, FIG. 25B, 24 h
[11] = wild-type TynA + A81L FeaR, pCX008, pCX024, FIG. 5C, 24 h
[12] = wild-type TynA + A81L FeaR, pCX008, pCX024, FIG. 24, 5 h
[13] = wild-type TynA + A81T FeaR, pCX008, pCX016, FIG. 22A

NCCc1ccccc1 [Phenylethylamine, phenylethylamine]
induction of fluorescence [1]: not | EC50 ([2]; 5 h, pCX008, pCX025, FIG. 25A, 5 h): 14 µM | EC50 ([2]; 24 h, pCX008, pCX025, FIG. 25B, 24 h): 50 µM | Fmax [2, 9]: 14 | Fmin [2, 9]: 0.4 | n (Hill coefficient) [2, 9]: 8.4 | Fmax [2, 10]: 112 | Fmin [2, 10]: 1.1 | KA (half maximal constant) [2, 10]: 0.052 mM | n (Hill coefficient) [2, 10]: 20.3 | fold induction ([3]; A81L sensor, FIG. 5C): 580 fold | EC50 ([3]; 5 h, pCX008, pCX024, FIG. 24, 5 h): 74 µM | EC50 ([3]; 24 h, pCX008, pCX024, FIG. 5C, 24 h): 140 µM | Fmax [3, 11]: 585 | Fmin [3, 11]: 4.8 | KA (half maximal constant) [3, 11]: 0.137 mM | n (Hill coefficient) [3, 11]: 2.7 | Fmax [3, 12]: 289 | Fmin [3, 12]: 5.1 | n (Hill coefficient) [3, 12]: 2.6 | EC50 (TynA-FeaR system; 5 h): 42 µM | EC50 (TynA-FeaR system; 24 h): 87 µM | fold induction at 1250 µM (TynA-FeaR system): > 1500 | Fmax (TynA-FeaR system; FIG. 3D, 24 h induction): 1430 | Fmin (TynA-FeaR system; FIG. 3D, 24 h induction): 0 | n (Hill coefficient) (TynA-FeaR system; FIG. 3D, 24 h induction): 3.9 | Fmax (TynA-FeaR system; FIG. 14, 5 h induction): 315 | Fmin (TynA-FeaR system; FIG. 14, 5 h induction): 10.4 | n (Hill coefficient) (TynA-FeaR system; FIG. 14, 5 h induction): 2 | Concentration [4]: 30 µM | Fmax (G494S TynA and A81S FeaR; FIG. 23A, 5 h): 462 | Fmin (G494S TynA and A81S FeaR; FIG. 23A, 5 h): 3.4 | n (Hill coefficient) (G494S TynA and A81S FeaR; FIG. 23A, 5 h): 1.2 | Fmax (G494S TynA and A81S FeaR; FIG. 25B, 22B [sic], 24 h): 475 | Fmin (G494S TynA and A81S FeaR; FIG. 25B, 22B [sic], 24 h): 5.9 | n (Hill coefficient) (G494S TynA and A81S FeaR; FIG. 25B, 22B [sic], 24 h): 1.5 | Fmax ([5]; FIG. 4D, 24 h): 84 | Fmin ([5]; FIG. 4D, 24 h): 0 | n (Hill coefficient) ([5]; FIG. 4D, 24 h): 0.6 | Fmax ([5]; FIG. 17B, 5 h): 118 | Fmin ([5]; FIG. 17B, 5 h): 0 | n (Hill coefficient) ([5]; FIG. 17B, 5 h): 0.4 | Fmax [6, 13]: 1010 | Fmin [6, 13]: 18 | n (Hill coefficient) [6, 13]: 4.3 | effect of the A81T FeaR mutation on the response of the sensor [6]: insignificant impact | Fmax ([7]; FIG. 4C, 22B, 24 h): 790 | Fmin ([7]; FIG. 4C, 22B, 24 h): 5.4 | n (Hill coefficient) ([7]; FIG. 4C, 22B, 24 h): 1.4 | Fmax ([7]; FIG. 17A, 5 h): 9280 | Fmin ([7]; FIG. 17A, 5 h): 1.1 | n (Hill coefficient) ([7]; FIG. 17A, 5 h): 1.2 | fold induction ([7]; G494S* double mutant sensor): 140 fold | Fmax ([8]; FIG. 18A, 5 h): 18 | Fmin ([8]; FIG. 18A, 5 h): 0.8 | n (Hill coefficient) ([8]; FIG. 18A, 5 h): 36 | Fmax ([8]; FIG. 18B, 22B, 24 h): 4012 | Fmin ([8]; FIG. 18B, 22B, 24 h): 3.4 | n (Hill coefficient) ([8]; FIG. 18B, 22B, 24 h): 1.3 | fold induction ([8]; G494S single mutant sensor): 50 fold

NCCc1c[nH]c2ccccc12 [Tryptamine, tryptamine]
response ([1]; FeaR-KA I109N, 5 h and 24 h, FIG. 33A-B): lack of response | induction of fluorescence [1]: induction of fluorescence | response ([2]; A81P FeaR, 5 h and 24 h, FIG. 25A-B): lack of response | response ([3]; 5 h, FIG. 24): lack of response | response ([3]; 24 h, FIG. 5C): lack of response | EC50 (TynA-FeaR system; 5 h): 45 µM | EC50 (TynA-FeaR system; 24 h): 85 µM | fold induction at 1250 µM (TynA-FeaR system): ~280 | Fmax (TynA-FeaR system; FIG. 3D, 24 h induction): 268 | Fmin (TynA-FeaR system; FIG. 3D, 24 h induction): 1.3 | n (Hill coefficient) (TynA-FeaR system; FIG. 3D, 24 h induction): 4.3 | Fmax (TynA-FeaR system; FIG. 14, 5 h induction): 57 | Fmin (TynA-FeaR system; FIG. 14, 5 h induction): 5.9 | n (Hill coefficient) (TynA-FeaR system; FIG. 14, 5 h induction): 3.1 | response (G494S TynA and A81S FeaR; G494S TynA and A81S FeaR, 5 h and 24 h, FIG. 23A-B): lack of response | response ([5]; 5 h, FIG. 17B): lack of response | response ([5]; 24 h, FIG. 4D): lack of response; also recorded: minimal response | effect of the A81T FeaR mutation on the response of the sensor [6]: significantly reduced | response ([7]; 5 h, FIG. 17A): lack of response | response ([7]; 24 h, FIG. 4C): lack of response | response ([8]; G494S TynA, wild-type FeaR, 5 h and 24 h, FIG. 18A-B): lack of response
